Each structure is given as a SMILES string. Converted amounts (≈) assume the structure as drawn. Bounds are passed on as bounds.

This experiment concerns L1210. Briefly: Cytotoxicity against mouse L1210 cells after 48 hrs by WST-1 assay. The format is functional. To be noted: L1210, 48 h, read-out: ED50 (the source's name). For orientation: Formazan colour is commonly taken as a measure of viable cells.
`C=CCCCCC/C=C\C(O)C#CC#C/C=C/C` (stereo not drawn): the EC50 is 10.4 µg/mL (≈ 42.9 µM).
For `C=CCCCCC/C=C\C(O)C#CC#CC(O)C=C` (stereo not drawn), the EC50 came to 0.12 µg/mL (≈ 0.464 µM).
The result for `C/C=C/C#CC#C[C@H](O)CCO` [GYMNASTERKOREAYNE A] reads above 10 µg/mL; that for `C=CCCCCC/C=C\[C@H](O)C#CC#CC1OC1C` (stereo partly drawn) [GYMNASTERKOREAYNE B], 3.3 µg/mL (≈ 12.8 µM).
In the case of `C=CCCCCC/C=C\[C@H](O)C#CC#C[C@H](C=C)OC(C)=O` [GYMNASTERKOREAYNE C], the EC50 was 2.1 µg/mL (≈ 6.99 µM).
Turning to `C=CCCCCC/C=C\[C@H](O)C#CC#C/C=C/COC(C)=O` [GYMNASTERKOREAYNE D], the EC50 worked out at 7.7 µg/mL (≈ 25.6 µM).
Take `C=CCCCCC/C=C/[C@H](O)C#CC#C[C@@H](O)[C@H](C)O` [GYMNASTERKOREAYNE E]: the EC50 was 9.6 µg/mL (≈ 34.7 µM).
The result for `C=CCCCCC/C=C\[C@H](O)C#CC#C/C=C/CO` [GYMNASTERKOREAYNE F] reads 3.1 µg/mL (≈ 12 µM).

(Values after ChEMBL document CHEMBL1150596, “Gymnasterkoreaynes A-F, cytotoxic polyacetylenes from Gymnaster koraiensis” (2002).)
